Assay results published in US20090203634A1, “Compositions and Uses of Amooranin Compounds” (Variety Children's Hospital d/b/a Miami Children's Hospital, priority 2005, published 2009).
Converted amounts (≈) assume the structure as drawn. Marks after values point to notes of the source that are not given here.

Legend:
MCF-7 [1] = assay: Cell cycle analysis by flow cytometry; type: cell-based, human; settings: 1 μg/ml AMR, one range printed for MCF-7 and MCF-7/TH together
Description: (§1) Cell cycle analysis. The number of cells in each stage of the cell cycle was monitored by flow cytometric analysis of cellular DNA content after staining with 1 mg/ml propidium iodide (Chen, G. et al. Cancer Res, 1993, 53:2544-2547). Data was analyzed to determine the percentage of cells at each phase of the cell cycle (G0+G1, S, and G2+M).

MCF-10A [2] = assay: Cell cycle analysis by flow cytometry; type: cell-based, human; settings: 1 μg/ml AMR
Description: as §1

MCF-7/TH [3] = assay: Cell cycle analysis by flow cytometry; type: cell-based, human; settings: 1 μg/ml AMR, one range printed for MCF-7 and MCF-7/TH together
Description: as §1

MCF-7 [4] = assay: DNA fragmentation by agarose gel electrophoresis; type: cell-based, human
Description: (§2) Analysis of DNA fragmentation by agarose gel electrophoresis. To assess the pattern of DNA cleavage caused by AMR, agarose gel electrophoresis was performed as described by Cohen and Duke (Cohen, J. J. and Duke, R. C. J Immunol, 1984, 132:38-42). Briefly, control and drug-treated cells (2×10^6 cells) were lysed with 0.5 ml lysis buffer containing 0.2% Triton X-100 at room temperature for 30 minutes. The supernatant fractions were collected by centrifugation at 12,000×g for 30 minutes. The DNA in these fractions was precipitated overnight with 100 μl 5 M sodium chloride and 0.5 ml 2-isopropanol at −20° C. The DNA was dissolved in 20 μl of 10 mM Tris-HCl (pH 7.4) and 1 mM EDTA buffer. RNase (10 units) was added to the samples before incubating at 60° C. for 1 hour. An equal volume of loading buffer was added afterwards and the samples were subjected to electrophoresis on a 2% agarose gel in Tris borate buffer at 50 V for 3 hours. The agarose gel was stained with ethidium bromide, and DNA fragmentation pattern was visualized in a UV transilluminator. AMR-induced DNA fragmentation was also analyzed by TUNEL assay using in situ cell detection kit according to manufacturer's instructions. Briefly, cells were permeabilized in a solution containing 0.1% Triton X-100 and 0.1% (w/v) sodium citrate for 2 minutes. After washing in PBS, cells were incubated with label solution and terminal transferase. Cells were incubated without terminal deoxynucleotidyl transferase was used as negative control. DNase (1 μg/ml) treated cells incubated with label solution in the presence of terminal deoxynucleotidyl transferase (TUNEL reaction mixture) was used as positive control and the details of TUNEL assay have been described earlier (Ramachandran, C. et al. Anticancer Res, 1997, 17:3369-3376).

MCF-10A [5] = assay: DNA fragmentation by agarose gel electrophoresis; type: cell-based, human
Description: as §2

MCF-7/TH [6] = assay: DNA fragmentation by agarose gel electrophoresis; type: cell-based, human
Description: as §2

SW620/Ad-300 [7] = assay: DNA histogram analysis of cell cycle distribution; type: cell-based, human; settings: AMR 0-2.5 μg/ml, 48 hours, up from 15.6% without AMR
Description: (§3) DNA Histogram Analysis. Following drug exposure for 48 hours, cells were centrifuged and resuspended in propidium iodide-hypotonic citrate solution for 1 hour before flow cytometric analysis of cell cycle distribution (Ramachandran, C. et al. Biochem Pharmacol, 1995, 49:545-552).

CEM [8] = assay: DNA histogram analysis of cell cycle distribution; type: cell-based, human; settings: AMR 0-2.5 μg/ml, 48 hours, up from 18.0% without AMR
Description: as §3

SW620 [9] = assay: DNA histogram analysis of cell cycle distribution; type: cell-based, human; settings: AMR 0-2.5 μg/ml, 48 hours, up from 12.5% without AMR
Description: as §3

CEM/VLB [10] = assay: DNA histogram analysis of cell cycle distribution; type: cell-based, human; settings: AMR 0-2.5 μg/ml, 48 hours, up from 18.0% without AMR
Description: as §3

MCF-7 [11] = assay: Caspase-8 (LETD) activity by flow cytometry; type: cell-based, human; settings: AMR 1-8 μg/ml, 48 hours
Description: (§4) Detection of apoptosis and caspase activity. Breast carcinoma or breast epithelial cells were incubated for 48 hours in the presence or absence of AMR (1-8 μg/ml). AMR-induced apoptosis was evaluated by Fluorescein Caspase (VAD) Activity Kit and caspase-8 (LETD) Activity Kit according to manufacturer's instructions ([…]-Calvo, M. et al. J Biol Chem, 1998, 273:32608-32613).

MCF-10A [12] = assay: Caspase-8 (LETD) activity by flow cytometry; type: cell-based, human; settings: AMR 1-8 μg/ml, 48 hours
Description: as §4

MCF-7/TH [13] = assay: Caspase-8 (LETD) activity by flow cytometry; type: cell-based, human; settings: AMR 1-8 μg/ml, 48 hours
Description: as §4

MCF-7 [14] = assay: MTT cytotoxicity assay (Examples 6-8); type: cell-based, human; settings: 0-8 μg/ml AMR for 48 hours
Description: (§5) Cytotoxicity assay (Examples 6-8). MTT assay was used to determine drug sensitivity (Hansen, M. B. et al. J Immunol Methods, 1989, 119:203-210). Cells (1×10^4) were grown in 96-well plates and after 48 hours, the medium was replaced with new medium. The cells were incubated at 37° C. with varying concentrations of AMR for 48 hours at 37° C. Cell viability was then assayed by adding MTT dye (500 μg/ml). Six hours after incubation period, MTT containing medium was removed. The formazan crystals were dissolved in 100 μl/well dimethyl sulfoxide, and the plates were read in BIO-RAD Benchmark Microplate Reader at 570 nm wavelength. All experiments were repeated three times with three replications in each and the mean values were estimated. Student's t test was used to determine the significant difference between IC50 values.

MCF-10A [15] = assay: MTT cytotoxicity assay (Examples 6-8); type: cell-based, human; settings: 0-8 μg/ml AMR for 48 hours
Description: as §5

MCF-7/TH [16] = assay: MTT cytotoxicity assay (Examples 6-8); type: cell-based, human; settings: 0-8 μg/ml AMR for 48 hours
Description: as §5

SW620/Ad-300 [17] = assay: MTT cytotoxicity assay (Examples 1-5); type: cell-based, human
Description: (§6) Cytotoxicity Assay (Examples 1-5). […] Cell proliferation kit I (MTT) from Roche Diagnostics GmbH (Indianapolis, Ind.) was used for cytotoxicity assays and manufacturers protocol was followed for the assay.

CEM [18] = assay: MTT cytotoxicity assay (Examples 1-5); type: cell-based, human; settings: mean ± SD (n = 3), read-out: AMR IC50
Description: as §6

CEM/VLB [19] = assay: MTT cytotoxicity assay (Examples 1-5); type: cell-based, human
Description: as §6

[20] = test system: SW620 human tumor xenografts; assay: Xenograft studies with AMR in nude mice; type: in vivo; settings: for Therapeutic ratio: Therapeutic Ratio = 100 - Tumor Growth Rate Index (GRI)
Description: Xenograft studies with AMR in nude mice. Male athymic nude (nu/nu) mice of the BALB/c strain (4-5 weeks old) were purchased from Taconic Labs, NY. SW620 colon carcinoma cells (10^6/site) in 0.1 ml of Hank's balanced salt solution were injected subcutaneously into the right flank of the nude mice using a 21 gauge needle. When the tumors reached approximately 0.5 cm^3 size in volume (usually 14 days), chemotherapy with AMR was started involving six animals in each group with almost similar size tumors. […] AMR was dissolved in 1:1 mixture of Cremophor EL and ethanol for administration and the control treatments were doxorubicin dissolved in phosphate dissolved saline and saline alone (0 mg/kg). Tumor size (length and width) was recorded on every fifth day of treatment along with body weight and survival data. Tumor volume was calculated using the following formula: […]
Tumor growth rate was calculated as mean V1/V0 where V1 is the volume on the evaluation day of treatment effect and V0 is that on the first day of treatment. The growth rate index and therapeutic index estimates were calculated using the following formulae:
Therapeutic Ratio=100—Tumor Growth Rate Index (GRI)

SW620 [21] = assay: MTT cytotoxicity assay (Examples 1-5); type: cell-based, human; settings: mean ± SD (n = 3), read-out: AMR IC50
Description: Cell proliferation kit I (MTT) from Roche Diagnostics GmbH (Indianapolis, Ind.) was used for cytotoxicity assays and manufacturers protocol was followed for the assay.

SW620/Ad-300 [22] = assay: Cellular DOX content by flow cytometry; type: cell-based, human; settings: DOX 2 μg/ml with 1 and 2 μg/ml AMR
Description: (§7) Cellular DOX Content. […] Cellular DOX fluorescence was analyzed in a Coulter Elite flow cytometer. Fluorescence emission (above 530 nm) from at least 10,000 cells were collected, amplified and scaled to generate a single parameter histogram (Ramachandran, C. et al. Biochem Phammacol, 1995, 49:545-552).

CEM [23] = assay: Cellular DOX content by flow cytometry; type: cell-based, human; settings: DOX 2 μg/ml with 1 or 2 μg/ml AMR
Description: as §7

SW620 [24] = assay: Cellular DOX content by flow cytometry; type: cell-based, human; settings: DOX 2 μg/ml with 1 or 2 μg/ml AMR
Description: as §7

CEM/VLB [25] = assay: Cellular DOX content by flow cytometry; type: cell-based, human; settings: DOX 2 μg/ml with 1 and 2 μg/ml AMR
Description: as §7

MCF-7 [26] = assay: TUNEL assay of DNA fragmentation; type: cell-based, human; settings: AMR 1-8 μg/ml, 48 hours
Description: as §2

MCF-10A [27] = assay: TUNEL assay of DNA fragmentation; type: cell-based, human; settings: AMR 1-8 μg/ml, 48 hours
Description: as §2

MCF-7/TH [28] = assay: TUNEL assay of DNA fragmentation; type: cell-based, human; settings: AMR 1-8 μg/ml, 48 hours
Description: as §2

CC1(C)CC[C@]2(C(=O)O)CC[C@]3(C)C(=CC[C@@H]4[C@@]5(CO)CCC(=O)C(C)(C)[C@@H]5CC[C@]43C)[C@@H]2C1 [AMR, 25-hydroxy-3-oxoolean-12-en-28-oic acid] was tested, and the “accumulation in G2+M phase population” value (MCF-7 [1]) was 12.4%-32.2%, the G2/M phase arrest (MCF-10A [2]) was “does not induce any G2/M phase arrest” and the “accumulation in G2+M phase population” value (MCF-7/TH [3]) was 12.4%-32.2%. For the same compound, the DNA ladder pattern (MCF-7 [4]; 1 μg/ml AMR for 48 hours) was “highly visible”, the DNA ladder pattern (MCF-7 [4]; AMR treatment for 48 hours) was “distinct ladder pattern” and the DNA fragmentation (MCF-10A [5]; 1 μg/ml AMR for 48 hours) was “almost undetectable”. The DNA ladder pattern (MCF-10A [5]; AMR treatment for 48 hours) was “less distinct”, the DNA ladder pattern (MCF-7/TH [6]; 1 μg/ml AMR for 48 hours) was “highly visible” and the DNA ladder pattern (MCF-7/TH [6]; AMR treatment for 48 hours) was “distinct ladder pattern”. For the same compound, the “G2+M percentage” value (SW620/Ad-300 [7]) was 52.8%, the “percentage of G2+M cells” value (CEM [8]) was 61.1% and the “G2+M percentage” value (SW620 [9]) was 59.5%. The “percentage of G2+M cells” value (CEM/VLB [10]) was 48.7%, the “cells with caspase activation (caspase-8 positive cells)” value (“cells with caspase activation” for short) (MCF-7 [11]) was 40.8-71% and the “cells with caspase activation” value (MCF-10A [12]) was 4-32.8%. For the same compound, the “cells with caspase activation” value (MCF-7/TH [13]) was 28.5-43.2%, the IC50 (MCF-7 [14]) was 3.8 µg/mL (≈ 8.07 µM) and the IC50 (MCF-10A [15]) was 6.9 µg/mL (≈ 14.7 µM). For the same compound, the IC50 (MCF-7/TH [16]) was 6.8 µg/mL (≈ 14.4 µM), the “Modulator Index (MI = fold decrease in resistance/modulator in μM concentration)” value (SW620/Ad-300 [17]; SW620/Ad-300) was 41.6 and the IC50 (SW620/Ad-300 [17]; SW620/Ad-300, mean ± SD (n = 3), read-out: AMR IC50) was 12.7 ± 0.27 µM. The “resistance to AMR” value (SW620/Ad-300 [17]; SW620/Ad-300 versus SW620) was 1.6 fold, the IC50 (CEM [18]) was 5.31 ± 0.02 µM and the “Modulator Index (MI = fold decrease in resistance/modulator in μM concentration)” value (CEM/VLB [19]; CEM/VLB) was 40. The “resistance to AMR” value (CEM/VLB [19]; CEM/VLB versus CEM) was 1.9 fold, the IC50 (CEM/VLB [19]; CEM/VLB, mean ± SD (n = 3), read-out: AMR IC50) was 10.2 ± 0.11 µM and the “Survival (%)” value ([20]; 2 mg/kg) was 83.3%. The Therapeutic ratio ([20]; 2 mg/kg) was 61.3**, the “Survival (%)” value ([20]; 5 mg/kg) was 57.1% and the Therapeutic ratio ([20]; 5 mg/kg) was 37.6**. For the same compound, the “Survival (%)” value ([20]; 10 mg/kg) was 57.1%, the Therapeutic ratio ([20]; 10 mg/kg) was 41.9** and the tumor growth rate ([20]; AMR 2-10 mg/kg intraperitoneal, compared to doxorubicin (2 mg/kg) or saline) was “significantly reduced tumor growth rate”. For the same compound, the IC50 (SW620 [21]) was 7.7 ± 0.15 µM, the “cellular DOX accumulation” value (SW620/Ad-300 [22]) was “increased cellular DOX accumulation in a dose-dependent manner” and the “cellular DOX fluorescence” value (CEM [23]) was “No significant change”. The “cellular DOX fluorescence” value (SW620 [24]) was “No significant change”, the “cellular DOX accumulation” value (CEM/VLB [25]) was “increased cellular DOX accumulation in a dose-dependent manner” and the “cells with DNA fragmentation (TUNEL)” value (MCF-7 [26]) was 37.3-72.1%. For the same compound, the “cells with DNA fragmentation (TUNEL)” value (MCF-10A [27]) was 0-37.1% and the “cells with DNA fragmentation (TUNEL)” value (MCF-7/TH [28]) was 32-48.7%.
